Data from EP0740650B1, “CODRUGS AS A METHOD OF CONTROLLED DRUG DELIVERY” (priority 1994, dated 1995).
Blank lines part the entries; values can stand above or below the compound they belong to.

Key:
[1] = Stability of acetazolamide sulfocarbamate derivative in buffer solution; assay type: physicochemical
[2] = In vitro release from 2 mg codrug pellets in phosphate buffer (Example 3); assay type: physicochemical
Method: Two mg pellets of the codrug 5FU/TRI were prepared in a 1.5 mm pellet press using a modified Parr Instrument Press. Pellets were then immersed in 5 ml phosphate buffer (Ph 7.4, 37 °C) and 300 µl samples removed each day for 6 days; there immediately replaced was replaced 300 µl of buffer. Samples were assayed by HPLC for 5FU/TRI, triamcinolone acetonide and 5FU. After 6 days buffer was completely replaced, to maintain sink conditions, and sampling continued.

[3] = system: posterior capsular opacification (PCO); experiment: Posterior capsular opacification after cataract extraction and IOL implantation with codrug pellet (Example 7); assay type: in vivo, New Zealand White rabbits
Method: Codrug pellets were prepared that gave pseudo zero order release of 5FU and TRI in an equimolar ratio over 6 weeks. […] 1.5 mm pellets containing 1.5 mg of TRI and 0.5 mg 5FU were prepared and fixed to the haptics of IOLs using the bioerodible polybutyl cyanoacrylate. This polymer is soaked into the pellet forming a codrug/cyanoacrylate matrix as it dried (figure 3). 16 New Zealand White rabbits were used in this study, one eye (control) received a polymethyl methacrylate intraocular lens (IOL) (Chiron Intraoptics) while the other received an IOL with codrug. Eyes were examined regularly by slit lamp and PCO scored from 0 to 4+. Retinal function was determined by electroretinogram (ERG) before implantation and before sacrifice. Animals were sacrificed after 4, 8, 12 and 16 weeks; eyes were removed and fixed in formalin. Photographs of posterior capsule were projected onto a grid and the percentage of PCO calculated.

[4] = In vitro release from 1.5 mm codrug implants in phosphate buffer (Example 8); assay type: physicochemical; conditions: 1.5 mm implant, phosphate buffer pH 7.4
Method: (§1) Bioerodible codrug implants were prepared 1.5 mm in diameter and attached to 6-0 nylon suture. Implants were immersed in 5 ml of phosphate buffer (pH 7.4) and samples periodically removed for HPLC assay to determine the release of both 5FU and TRI. Similar implants were then inserted into the vitreous of 14 New Zealand White rabbits (figure 4). Toxicity was assess by electroretinogram and slit lamp examination in all animals. Histopathologic examination was performed on four animals. Ten animals were used for pharmacokinetics; two animals were sacrificed 1, 2, 3, 4 and 5 weeks after implantation. Eyes were enucleated, devices removed and both vitreous and aqueous obtained. All samples were assayed by HPLC. Five animals received actual devices in one eye and placebo implants in contralateral eyes. These were sacrificed after 3 and 6 weeks for histopathologic examination.

[5] = physchem; assay type: physicochemical; conditions: phosphate buffer
Method: (§2) A stock solution was prepared by dissolving 10 mg of 5FU/TRI in 10 ml acetonitrile. This was then added to a series of phosphate buffers at pH 3, 5, 6.4, 7.4 and 8.4 at 37°C to give final concentrations of 100 ug/ml. Care was taken to ensure that these solutions were indeed solutions and not suspensions. Samples were periodically removed and assayed by HPLC as described below. Enzymatic hydrolysis was determine in a similar way using pooled serum from 3 volunteers. The assay procedure used distinguished between TRI and 5FU/TRI. 5FU was assayed under different conditions. HPLC Assays: Samples of buffer containing codrug and steroids were assayed by HPLC using a fully automated Hitachi system with a C-18 reverse phase column (25 cm × 4 mm x 5 µm) and uv detection. The mobile phase was 40% acetonitrile buffered to 4.0 with 0.02% sodium acetate. The flow rate was 1.0 ml/min and detection was at 238 nm. Under these conditions the retention time of the codrug 5FU/TRI was 17 minutes while triamcinolone acetonide eluted at 9 minutes. Quantitation limits were 0.3 and 0.5 ug/ml, respectively. […] For 5FU an Applied Biosystems HPLC system was used with a C-18 column reverse phase column (25 cm x 4 mm x 5 µm) and 0.02% sodium acetate buffer mobile phase (Ph 4.0). The flow rate was 1.0 ml/min and detection was by uv at 266 nm. Under these condition the retention time was 6.5 minutes and the detection limit 0.2 ug/ml.

[6] = in vitro; assay type: in vitro ADME; conditions: human, serum, t½
Method: as §2, with “Under these condition the retention time was 6.5 minutes and the detection limit 0.2 ug/ml.” left out
To quantitate 5FU it was necessary to remove acetonitrile before analysis. […]

[7] = Intravitreal codrug implants: pharmacokinetics and toxicity (Example 8); assay type: in vivo, New Zealand White rabbits; conditions: intravitreal implant
Method: as §1

[8] = Subconjunctival codrug devices: release from explanted devices, toxicity (Example 6); assay type: in vivo, rabbits; conditions: rabbit
Method: Codrug devices were prepared as flat discs 2.5 mm in diameter weighing 5 mg. Each device contained approximately 3.7 mg of TRI and 1.3 mg of 5FU and were composed of over 97% active substance. Devices were implanted subconjunctivally in each eye of ten rabbits (figure 2). Toxicity and inflammation were determined by weekly slit lamp examinations and electroretinograms (ERGs). Animals were sacrificed after 3, 7, 10 and 14 days and eyes eviscerated. After freezing at -70°C devices were removed for determination of residual drugs and the complete vitreous and aqueous dissected from the ice ball to determine the concentration of SFU and TRI. Two animals were used for histology and were sacrificed 6 weeks after implantation.

[9] = immersed in pH 7.4 buffer
[10] = Vitreous concentrations after intravitreal implantation of codrug pellets (Example 4); assay type: in vivo, New Zealand white rabbits
Method: Two mg pellets of the codrug 5FU/TRI were prepared using a 1.5 mm press. These pellets were then fixed onto 6-0 nylon suture using intraocular lens grade silicone. silicone covered the base of the pellets providing a platform for suture attachment. Alternatively a solution of 2% or 5% polylactic acid was used. Pellets attached by both methods were implanted into the vitreous of 8 New Zealand white rabbits through a small incision through the sclera. For each type of device, two animals were killed after 1, 2, 3, and 4 weeks and the vitreous and aqueous obtained from the frozen sphere. Before death animals were examined with a slit lamp. […] Pellets were then implanted into the vitreous of 8 New Zealand White rabbits in a similar manner to that described in 3b except that sclerotomy sites were smaller in this case (2.5 mm). […] HPLC analysis was then performed on tissue samples and explanted devices to determine the concentrations of 5FU, triamcinolone acetonide and intact 5FU/TRI.

[11] = physchem; conditions: buffer
[12] = system: extraocular muscle (EOM) surgery in rabbits; experiment: Scar reduction after extraocular muscle surgery with codrug implants (Example 5); assay type: in vivo
Method: After the IRM was sewn back into its insertion site, four 2 mg codrug implants were inserted between sclera and muscle in the right eye, while the left was used as a control. Bioerodible codrug implants releasing 5FU and TRI over 6 weeks were prepared. Devices release equimolar amounds of 5FU and TRI. Animals were sacrificed at 1, 2 and 3 weeks and eyes eviscerated. Specimens were prepared and stained with H&E. The scar thickness and cellular infiltrate were determined quantitatively using a Bioscan image analysis program.

[13] = system: proliferative vitreoretinopathy (PVR); experiment: Intravitreal pellet after vitrectomy, proliferative vitreoretinopathy; assay type: in vivo; conditions: pellet implanted intravitreally after vitrectomy; animal studies proceeding

stability in buffer solution [1]: appears to stable in buffer solution
SMILES: CC(=O)Nc1nnc(S(=O)(=O)NC(=O)O[C@@H]2C[C@H](C)CC[C@H]2C(C)C)s1 [product 35]

SMILES: CC1(C)O[C@@H]2C[C@H]3[C@@H]4CCC5=CC(=O)C=C[C@]5(C)[C@@]4(F)[C@@H](O)C[C@]3(C)[C@]2(C(=O)COC(=O)OCn2cc(F)c(=O)[nH]c2=O)O1 [5FU/TRI]
fraction of triamcinolone acetonide and 5FU released while rates were maintained ([2]; 2 mg pellet, phosphate buffer pH 7.4): over 60% | Release of 5FU ([2]; 2 mg pellet, phosphate buffer pH 7.4, 37 °C): 0.4 ± 0.06 µg/h | intact codrug in the receptor medium ([2]; 2 mg pellet, phosphate buffer pH 7.4, 37 °C, HPLC detection limit 0.5 ug/ml): No intact codrug was detected | mean release rate of triamcinolone acetonide ([2]; 2 mg pellet, phosphate buffer pH 7.4, 37 °C, pseudo zero order): 1.4 ± 0.3 µg/h | mean ratio of 5FU to triamcinolone acetonide concentration (ug/ml) in the receptor solution ([2]; all time points (equimolar release)): 3.40 +/- 0.15 | tolerability (ERG and histopathologic data) ([3]; codrug pellet on IOL haptic, rabbit capsular bag): well tolerated with no indication of a toxic or inflammatory response | PCO by slit lamp examination, study versus control eyes ([3]; p< 0.001): statistically significant decrease in PCO | PCO assessed using a grid ([3]; p< 0.03 by 8 weeks): arrest of opacification | release of 5FU in buffer [4]: 0.3 µg/h | release of TRI in buffer [4]: 1.4 µg/h | half-life ([5]; pH 3): 204 h | half-life ([5]; pH 5): 12.7 h | half-life ([5]; pH 6.4): 1.3 h | half-life ([5]; pH 7.4): 0.235 h | half-life ([5]; pH 8.4): 0.163 h | half-life ([6]; half-life): < 10 min | half-life [6]: 8.8 min | Levels of TRI and 5FU in the aqueous ([7]; rabbit): too low to be detected | tolerability in rabbit eyes ([7]; ERG, slit lamp, histopathology): well tolerated in rabbit eyes with no indication of toxicity or inflammation | ERGs ([8]; in vivo): normal | release rate of 5FU and TRI from explanted devices (pseudo zero order) ([8]; in vivo): 9 +/-1 % per day | toxicity or inflammation around the implantation site ([8]; subconjunctival devices, slit lamp): no evidence of toxicity or inflammation | release of TRI and 5FU from compressed pellet [9]: slowly releases both TRI and 5FU over an extended period of time (months) | intact codrug in the vitreous ([10]; 2 mg pellets implanted in rabbit vitreous): No intact codrug was detected | intravitreal levels of triamcinolone ([10]; rabbit vitreous, week 5): below the detection limit of the HPLC | half-life ([11]; pH 3): > 48 h | half-life ([11]; pH 7.4): < 0.05 h | number of inflammatory cells in a defined area of tissue ([12]; 40 µm^2 area, control > 300): < 35 | scar thickness ([12]; drug treated eyes (controls 35 µm)): 7 µm | decrease in scar thickness compared to controls ([12]; four 2 mg implants between sclera and muscle, rabbit): 80% | occurrence of PVR [13]: reduce the occurrence of PVR
